According to article PMC12606624 (Journal of Chemical Information and Modeling, 2025):

How the values were obtained:
His-RAD51 [F86E, A89E] = test: Biolayer interferometry (BLI), bioBRC4 immobilized on Streptavidin biosensors; format: binding; settings: 460, 230 and 115 nM His-RAD51 [F86E, two replicates, pH 8.00, 25 °C, 180 s association, 180 s dissociation
Method: Biolayer interferometry (BLI) experiments were performed by utilizing an Octet K2 system (Sartorius). All BLI experiments were carried out in an assay buffer containing 20 mM Hepes, pH 8.00, 100 mM Na2SO4, 5% glycerol, 0.05% Tween 20, 0.1% PEG8000, and 0.5 mM Sodium Deoxycholate. The following protocol was applied: 60 s baseline, 240 s loading, 240 s baseline, 180 s association, 180 s dissociation. For every step, shaking at 1000 rpm was enabled, and the temperature was set at 25 °C. Streptavidin Octet biosensors (18-5019, Sartorius) were initially dipped into assay buffer to record an initial baseline for 60 s. BioBRC4 was solubilized in 100% DMSO at a 2 mM concentration, diluted at a final 1 μM concentration in assay buffer, and then immobilized to the Streptavidin sensor through a 240 s loading step. After the loading stage, a second baseline of 240 s was recorded in wells containing only assay buffer to verify the stability of the signal and remove unbound peptide. […] Data were analyzed using Octet Analysis Studio 12.2 by subtracting, from recorded sensorgrams, the signals of both the reference well and reference sensors to remove the signals due to nonspecific binding. The recorded sensorgrams were corrected by aligning to the average of the second baseline steps and applying Savitzky–Golay filtering and interstep correction based on the second baseline step. […]

[1] = tested on: monomeric His-RAD51 [F86E, A89E]; test: Static light scattering (SLS) binding test, SEC columns in tandem
Method: Static light scattering (SLS) analyses were performed on a Viscotek GPCmax/TDA (Malvern, UK) instrument, connected in tandem with a series of two TSKgel G3000PWxl size-exclusion chromatography columns (Tosoh Bioscience) as already described in ref . For all the experiments, the system was equilibrated with buffer containing 20 mM Hepes pH 8.00, 100 mM Na2SO4, and 5% glycerol. […] Data analysis was performed using Viscotek software, calibrating the instrument with Bovine Serum Albumin at 5 mg/mL. Data were exported as .csv files and regraphed using GraphPad Prism 10.

[2] = tested on: monomeric RAD51 (His-RAD51[F86E, A89E]); test: Cross-linking with BS3 or EDAC, Coomassie blue SDS-PAGE and Western blot; format: binding; settings: Coomassie blue-stained SDS-PAGE; BS3 1 mM, 1:1; EDAC 0.2% (w/v), 1:2
Method: For cross-linking with bis(sulfosuccinimidyl)-suberate (BS3), the purified His-RAD51[F86E, A89E] concentration was adjusted to 24 μM (=0.98 mg/mL). […] The mixture was incubated for 30 min at 20 °C on a thermoblock to allow for complex formation and then cross-linked with a final concentration of 1 mM BS3 (previously solubilized in PBS as a 50 mM stock). After 30 min at the same temperature, 4× Laemmli Sample Buffer (BioRad #1610747) was added to cross-linked samples and boiled at 95 °C for 5 min. […] The mixture was incubated for 1 h at 20 °C to allow for complex formation and then cross-linked with a final concentration of 0.2% (w/v) EDAC (previously solubilized in DMSO as a 10% w/v stock) for 1 h at the same temperature. 4× Laemmli Sample Buffer (BioRad #1610747) was then added to cross-linked samples and boiled at 95 °C for 5 min.
The efficiency of cross-linking reactions was evaluated through Coomassie blue staining and Western blot (WB) analysis. Prepared cross-linked samples were resolved using a 4–15% SDS-PAGE gel (Criterion TGX Precast Midi Protein Gel), which was stained using page blue protein staining solution (Thermo Fisher, 24620) according to manufacturer protocols. […] After three washes in TBS-T, chemiluminescence was detected using the Clarity Western ECL substrate (Biorad, #1705061), and images were recorded using a ChemiDoc MP Imaging System (Biorad). […]

Question: With “Bio-Ahx-KEPTLLGFHTASGKKVKIAKESLDKVKNLFDEKEQ-COOH [bioBRC4, modified version of BRC4 harboring a biotin at the N-ter]” as the substance, how does the “binding to monomeric RAD51” value (His-RAD51 [F86E, A89E]) read?
Answer: Its value is “showing the binding of monomeric His-”.

Question: And the “binding to monomeric RAD51” value ([1]; SLS and BLI (two orthogonal methods), SLS: RAD51 [F86E, A89E] 24 μM, 1 h at 25 °C, 4-fold excess peptide, 20 mM Hepes pH 8.00, 100 mM Na2SO4, 5% glycerol, 5% DMSO for BioBRC4)?
Answer: The value was “confirmed the binding of bioBRC4 to monomeric RAD51”.

Question: And the “effect of biotin modification on binding to monomeric RAD51” value ([1]; bioBRC4 vs BRC4, assessed from SLS and BLI (Figure S3))?
Answer: Its value is “did not negatively affect its binding to monomeric RAD51”.

Question: What about the “cross-linking to monomeric RAD51, BS3 versus EDAC” value [2] of the same substance?
Answer: Its value is “BS3 cross-linked bioBRC4 to the monomeric RAD51 more effectively than EDAC”.
